{
  "source": "paper PMC13090440",
  "about": "“Targeting SARS-CoV-2 main protease (3CL^pro) with Paeonia-derived phytochemicals” (In Silico Pharmacology, 2026)",
  "target": "T1, SARS-CoV-2 3CL^pro (Severe acute respiratory syndrome coronavirus 2, UniProt P0DTD1)",
  "T1 construct": "gene rep",
  "assay": "fluorogenic peptide cleavage assay, continuous",
  "type": "biochemical",
  "data": [
    {"compound": "COc1c(-c2ccc(O)c(O)c2)oc2cc(O)cc(O)c2c1=O", "note": "[3-O-methylquercetin]", "values": [
      {"measurement": "IC50", "value": 43.9, "unit": "µM"}
    ]}
  ]
}
